Experimental data published in PubChem BioAssay (NCI).
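Exposure lasted 48 hours, with cells grown in 96-well plates and compounds tested at five concentrations. Here, GI50 denotes the concentration required for 50% inhibition of growth. TGI marks complete inhibition of growth.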

What was measured:
Experiment in all cases: NCI anticancer screen, dose series, 48 h
CCRF-CEM leukemia = test system: CCRF-CEM leukemia
M14 melanoma = test system: M14 melanoma
MDA-MB-231 breast = test system: MDA-MB-231 breast
MDA-MB-435 = test system: MDA-MB-435
SR leukemia = test system: SR leukemia
NCI-H522 lung = test system: NCI-H522 lung
MOLT-4 leukemia = test system: MOLT-4 leukemia
UO-31 renal = test system: UO-31 renal
SNB-19 CNS = test system: SNB-19 CNS
T-47D breast = test system: T-47D breast
SN12C renal = test system: SN12C renal
SW-620 colon = test system: SW-620 colon
CAKI-1 renal = test system: CAKI-1 renal
OVCAR-5 ovarian = test system: OVCAR-5 ovarian
LOX IMVI melanoma = test system: LOX IMVI melanoma
HT29 colon = test system: HT29 colon
MALME-3M melanoma = test system: MALME-3M melanoma
NCI-H460 lung = test system: NCI-H460 lung
SK-OV-3 ovarian = test system: SK-OV-3 ovarian
PC-3 prostate = test system: PC-3 prostate
SK-MEL-28 melanoma = test system: SK-MEL-28 melanoma
DU-145 prostate = test system: DU-145 prostate
UACC-257 melanoma = test system: UACC-257 melanoma
SF-295 CNS = test system: SF-295 CNS
786-0 renal = test system: 786-0 renal
SK-MEL-5 melanoma = test system: SK-MEL-5 melanoma
SF-268 CNS = test system: SF-268 CNS
HCC-2998 colon = test system: HCC-2998 colon
COLO 205 colon = test system: COLO 205 colon
HCT-116 colon = test system: HCT-116 colon

CCc1ccccc1NC(=O)N/C(N)=N/c1nc2ccccc2s1 showed a GI50 (CCRF-CEM leukemia) of 38.2 nM, a TGI (CCRF-CEM leukemia) of 13500 nM and a GI50 (M14 melanoma) of 28.6 nM. The TGI (M14 melanoma) was 911 nM, the GI50 (MDA-MB-231 breast) was 40.5 nM and the TGI (MDA-MB-231 breast) was 598 nM. For the same compound, the GI50 (MDA-MB-435) was less than 14.6 nM, the TGI (MDA-MB-435) was 38.9 nM and the GI50 (SR leukemia) was 120 nM. The TGI (SR leukemia) was 21600 nM, the GI50 (NCI-H522 lung) was less than 16.7 nM and the TGI (NCI-H522 lung) was 90 nM. For the same compound, the GI50 (MOLT-4 leukemia) was 62.8 nM, the TGI (MOLT-4 leukemia) was 18700 nM and the GI50 (UO-31 renal) was 97.9 nM. The TGI (UO-31 renal) was 34600 nM, the GI50 (SNB-19 CNS) was 51.7 nM and the TGI (SNB-19 CNS) was 14600 nM. It also gave a GI50 (T-47D breast) of 15100 nM, a TGI (T-47D breast) greater than 100000 nM and a GI50 (SN12C renal) of 43.8 nM. It also gave a TGI (SN12C renal) of 6910 nM, a GI50 (SW-620 colon) of 42.2 nM and a TGI (SW-620 colon) of 15700 nM. The GI50 (CAKI-1 renal) was 63.1 nM, the TGI (CAKI-1 renal) was 7200 nM and the GI50 (OVCAR-5 ovarian) was 53.3 nM. For the same compound, the TGI (OVCAR-5 ovarian) was 12000 nM, the GI50 (LOX IMVI melanoma) was 43.1 nM and the TGI (LOX IMVI melanoma) was 4620 nM. For the same compound, the GI50 (HT29 colon) was 31.6 nM, the TGI (HT29 colon) was 135 nM and the GI50 (MALME-3M melanoma) was 62.2 nM. The TGI (MALME-3M melanoma) was 11300 nM, the GI50 (NCI-H460 lung) was 35.4 nM and the TGI (NCI-H460 lung) was 3820 nM. It also gave a GI50 (SK-OV-3 ovarian) of 150 nM, a TGI (SK-OV-3 ovarian) of 33600 nM and a GI50 (PC-3 prostate) of 52.8 nM. The TGI (PC-3 prostate) was 18800 nM, the GI50 (SK-MEL-28 melanoma) was 2830 nM and the TGI (SK-MEL-28 melanoma) was 21300 nM. It also gave a GI50 (DU-145 prostate) of 48.3 nM, a TGI (DU-145 prostate) of 2500 nM and a GI50 (UACC-257 melanoma) of 4670 nM. For the same compound, the TGI (UACC-257 melanoma) was greater than 54400 nM, the GI50 (SF-295 CNS) was 23.4 nM and the TGI (SF-295 CNS) was 2040 nM. It also gave a GI50 (786-0 renal) of 89.8 nM, a TGI (786-0 renal) of 5140 nM and a GI50 (SK-MEL-5 melanoma) of 31.1 nM. The TGI (SK-MEL-5 melanoma) was 116 nM, the GI50 (SF-268 CNS) was 336 nM and the TGI (SF-268 CNS) was greater than 100000 nM. It also gave a GI50 (HCC-2998 colon) of 29.1 nM, a TGI (HCC-2998 colon) of 3050 nM and a GI50 (COLO 205 colon) of 29.4 nM. For the same compound, the TGI (COLO 205 colon) was 94 nM and the GI50 (HCT-116 colon) was 37.7 nM.
